Laboratory results as given in paper PMC10883292, “Estrogen Receptor Mutations as Novel Targets for Immunotherapy in Metastatic Estrogen Receptor–positive Breast Cancer” (Cancer Research Communications, 2024).

Experiments:
peptide-pulsed T2 cells = experiment: Calcein-AM release cytotoxicity assay, peptide-pulsed T2 cells; format: cell-based, human; conditions: 20:1 effector:target ratio, 4-hour calcein-AM release, T2 cells pulsed with corresponding peptide, peptide-specific CTLs from healthy female donors
Procedure: Healthy donor lymphocytes and DCs were cocultured in 6-well plates supplemented with IL7 and IL2, as described above. On days 12–14, cultured peptide-specific CTLs were harvested and peptide-specific cytotoxicity was assessed using a standard 4-hour Calcein-AM (Sigma-Aldrich) release assay as described previously ([24]). Briefly, target cells, including T2 cells pulsed with mutant and wild-type peptides, were labeled with 5 µg/mL calcein-AM for 15 minutes in the dark. After two washes, cells were adjusted to 2 × 10^5/mL, plated on a Terasaki plate, and cocultured with peptide-specific CTLs at effector:target ratios of 20:1 and 5:1. After 4 hours of incubation, Trypan blue was added to quench the reaction. The fluorescence was measured using a Cytation 3 Imaging Reader (BioTek). The percentage of specific cell lysis was calculated using the following formula: […]
T2 cells were pulsed with corresponding peptides and labeled with calcein-AM. Cytotoxicity was determined by a standard calcein-AM release assay. Wildtype-1 (A), E380Q (B), Wildtype-2 (C), Y537S (D), D538G (E). Non-pulsed T2 cells were used as negative controls. Statistical significance was determined via unpaired Student t test. Data represent the average of three to four experiments from separate healthy female donors run in triplicate. *, P < 0.05; ***, P < 0.001.

HLA-A*0201 on T2 cells = target: T1, HLA-A*0201 on T2 cells (Homo sapiens, UniProt P04439, D140Y/D185E/D98H/E176V/E277Q/G131W/G231S/I119V/I121R/I166T/I218V/L300P/L318F/N151K/N90K/P208A/P217A/Q86G/Q94H/R138H/R169H/T345S); experiment: T2 dissociation (stability) assay; format: cell-based; conditions: peptide:HLA-A*0201 dissociation; T2 cells pulsed 8–12 hours, washed; MFI normalized to time 0; linear regression; three independent experiments in triplicate
T1 construct: T2 cells were pulsed with indicated peptides for 8–12 hours, washed, and then stained for surface HLA-A*0201 expression; host or cells: T2 cells
Procedure: T2 binding assays were performed as described previously ([23]). […] Surface expression of HLA-A*0201 in T2 cells was determined by staining with an anti-HLA-A2 mAb (BB7.2, BD Biosciences). The median fluorescence intensity (MFI) was measured using a FACSCando II (BD Biosciences). The peptide half-life was calculated by linear regression using GraphPad Prism software.
FIGURE 2 Kinetics of peptide: HLA-A*0201 dissociation. T2 cells were pulsed with indicated peptides for 8–12 hours, washed, and then stained for surface HLA-A*0201 expression at indicated timepoints for wildtype-1 and E380Q (A), wildtype-2 and Y537S (B), wildtype-2 and D538G (C). MFI for each timepoint was normalized to initial staining (time = 0). Linear regression analysis was used to plot lines of best fit for each individual peptide, and half-life for each peptide is shown in Table 2. Data are pooled from three independent experiments performed in triplicate.

[1] = tested on: peptide-specific CD8+ T cells from PBMC of healthy female HLA-A2 positive donors; experiment: Peptide-specific CTL tetramer assay and expansion; format: cell-based, human; conditions: for tetramer expansion: post- vs pre-expansion, in words; for average frequency fold change (vs. pre-expansion): after CTL expansion with peptide-pulsed DCs, IL7, IL2; for average frequency fold change (vs. pre-expansion) / average frequency of peptide-specific CTLs in peripheral blood: tetramer staining; for average frequency of peptide-specific CTLs in peripheral blood: pre-expansion, PBMC of healthy females, 3 donors
From the text: Healthy donor peripheral blood samples were purchased from the local blood bank and used under an MD Anderson Cancer Center Institutional Review Board–approved protocol. Because the samples came from deidentified healthy donors, the Institutional Review Board determined that informed consent was not required. Peripheral blood mononuclear cells (PBMC) were isolated from buffy coats of healthy female HLA-A2 positive donors by Ficoll/Histopaque (Sigma-Aldrich) density gradient centrifugation and split equally into two groups. One group of PBMC was used to assess the pre-expansion frequency of the peptide-specific CTLs. These cells were immediately stained with FITC-conjugated anti-CD3 and APC-H7–conjugated anti-CD8 to select for CD8^+ T cells. Pacific blue (PB)-conjugated anti-CD4, anti-CD14, anti-CD16, anti-CD19, and anti-CD56 (BD Biosciences) were used as a dump gate to gate out other immune cell types; PE-conjugated mutant peptide and APC-conjugated wild-type peptide tetramers (Baylor College of Medicine, MHC tetramer core, Houston, TX) were used to enumerate the percentage of peptide-specific CD8^+ T cells present in healthy PBMCs. The analysis was performed using flow cytometry.
The second group of donor PBMC was used to assess the expansion potential of the peptide-specific CTLs. To expand peptide-specific CTLs, dendritic cells (DC) were matured from adherent monocytes by the addition of GMCSF (100 ng/mL, Sanoti), IL4 (50 ng/mL, rhIL4, Tonbo Biosciences), and TNFα (25 ng/mL, BioLegend). Lymphocytes from the same donor were separated and cocultured with 40 µg/mL of mutant and wild-type peptides. After 5 days, DCs were harvested and cocultured with autologous CD8^+ T cells for an additional 7 days. The cocultured cells were supplemented with IL7 (10 ng/mL; BioLegend) for CTL activation and IL2 (25 ng/mL; R&D Systems) for CTL expansion. After CTL activation and expansion, cells were stained and analyzed as described above.
FIGURE 3 Peptide-specific expansion of CD8^+ T cells. PBMCs from healthy donors were isolated and expanded as described in the Materials and Methods. Tetramer staining was performed pre- and post-expansion to quantify frequencies of peptide-specific CD8^+ T cells. A, Wildtype-1, E380Q. B, Wildtype-2, Y537S, D538G. Data represents three independent experiments, from 3 separate donors, performed in triplicate. Statistical significance was determined via comparison of pre-expansion versus post-expansion CD8^+tetramer^+ population using unpaired Student t test. *, P < 0.05.

Sequence | specific cytotoxicity (peptide-pulsed T2 cells) [%] | Half-Life (HLA-A*0201 on T2 cells) [h] | tetramer expansion [1] | average frequency fold change (vs. pre-expansion) [1] [fold] | average frequency of peptide-specific CTLs in peripheral blood [1] [%]
LLECAWLEI [Wildtype-1, wild-type ESR1-derived nonameric peptide associated with E380Q] | 25.99 | 5.4 | did not show tetramer expansion |  | 
LLQCAWLEI [E380Q, ESR1-derived nonameric peptide with E380Q mutation] | 28.45 | 7.2 |  | 5.77 | 0.03
PLSDLLLEM [Y537S, ESR1-derived nonameric peptide with Y537S mutation] | 30.03 | 6.2 |  | 4.85 | 0.18
PLYDLLLEM [Wildtype-2, wild-type ESR1-derived nonameric peptide associated with Y537S and D538G] | 13.27 | 5.9 | modest expansion |  | 
PLYGLLLEM [D538G, ESR1-derived nonameric peptide with D538G mutation] | 30.48 | 6.0 |  | 4.31 | 0.17
